Literature values, collected in US7834258B2, “Dimer of chimeric recombinant binding domain-functional group fusion formed via disulfide-bond-bridge and the processes for producing the same” (priority 2003, dated 2010).

Test system: H2981 human lung adenocarcinoma cells

Structure (SMILES): Nc1nc(=O)[nH]cc1F [5-FC, 5-Fluorocytosine]
- cytotoxicity (H2981 cells, 200 uM concentration): no effect

Structure (SMILES): O=c1[nH]cc(F)c(=O)[nH]1 [5-FU, 5-Fluorouracil]
- IC50 (H2981 human lung adenocarcinoma cells, read-out: ID50 (the source's name)): 20 µM
